According to patent US7655392B2, “Quenching methods for red blood cell inactivation process” (priority 2004, dated 2010):
Read-outs that look alike come from different tables or passages of the source.

Key:
[1] = system: Serratia marcescens; format: cell-based; settings: no PIC-1, 20 mM glutathione
[2] = system: red blood cells; format: cell-based; settings: unit 6: 0.2 mM GSH+2 eq base, no PIC-1
Procedure: In another assay, the rabbit polyclonal sera may be reacted with treated red blood cells. After washing off unbound antibody, a FITC labeled goat anti-rabbit Fab′2 fragment (anti H+L chains, Caltag) is added. The binding of FITC label to the red blood cells correlates with the amount of acridine bound to the red blood cell surface, and is assessed by FACScan™ analysis (Becton, Dickinson and Co., NJ). The relative modification of the red blood cells is determined from the FACScan™ mean fluorescence value.
A 20 mL sample of leukoreduced whole blood (Blood Source, Sacramento, Calif.) was centrifuged at 4,100×g for 5 minutes at room temperature in each of four 50 mL centrifuge tubes. The supernatant was removed from each tube to provide red cell concentrate (RCC). […] For each washed RCC, cells were resuspended in 5 mL of the solution used for washing. This is now referred to as the RBC test sample. […] These samples were incubated for 20 hours at room temperature. After incubation, the RBC were washed in BBS (Blood Bank Saline, 0.9% saline, unbuffered, Fisher Scientific) and were diluted to a final hematocrit of 4%. A 25 μL aliquot of each was mixed with 15 μL of rabbit polyclonal anti-acridine sera diluted 1:100 in BBS and the mixture was incubated at 37° C. for 30 minutes. The cells were subsequently washed with 1.5 mL BBS. After washing was complete, the cells were mixed with 50 μL of FITC labeled goat anti-rabbit Fab′2 fragment (1:64 dilution in BBS) and incubated at 37° C. for 30 minutes. […] Note that the quenching improves as glutathione is neutralized with increasing amounts of sodium hydroxide.
The FACScan analysis of the binding of rabbit anti-acridine sera to treated red cells was used to assess a variety of quenching conditions. […] The tables represent data from two different experiments, each with samples treated under standard conditions or with 20 mM neutralized glutathione. […] The data within an experiment provides the relative efficacy of the various treatments. Because the assay may depend on the lot of red blood cells used, the absolute values of mean fluorescence may vary from one study to the next, such that relative values should only be compared within a given experiment. […] Neutralized glutathione at 20 mM results in close to background levels.
An untreated control sample as well as a standard sample (co-addition of 2 mM acidic glutathione with 0.2 mM PIC-1) were also assessed.
Full units of red cell concentrates (Interstate Blood Bank, Inc., Memphis, Tenn.) were leukoreduced. A volume of 200 mL of this RCC (80% hematocrit) was mixed with 94 mL of Erythrosol or 100 mL of Adsol (Baxter Healthcare Corp., Deerfield, Ill.) as control (unit 1). A volume of 20 mL 8% dextrose was used to dissolve PIC-1 (mg) and acid glutathione (mg) and added to one unit to provide 0.2 mM PIC-1 and 2 mM glutathione (unit 2). […] For the glutathione, 1.2 mL of 10 N NaOH was added (2 equivalents). The PIC-1 was mixed with the unit, followed 1 minute later (unit 3) or 5 minutes later (unit 4) by glutathione. For unit 5, neutralized glutathione was mixed first, followed 10 minutes later by the PIC-1. […] All units were mixed by grasping the ends of the blood bag and mixing in a FIG. 8 motion 30 times. These were then incubated at room temperature for 20 hours total. A compound adsorption device (CAD), comprising a polymeric resin contained within a mesh pouch, was used for all but the control sample. This device is intended to remove residual PIC-1, PIC-1 breakdown products, and glutathione from the samples. Samples were incubated for 8 hours, then transferred to a second blood bag containing the CAD and incubated for an additional 12 hours. Following the room temperature incubation, samples were transferred to a refrigerator (4° C.) and stored up to 43 days.

N[C@@H](CCC(=O)N[C@@H](CS)C(=O)NCC(=O)O)C(=O)O [glutathione, γ-L-glutamyl-L-cysteinyl-glycine]
Log S. marcescens reduction ([1]; 0 eq base): 0.02 Log
Log S. marcescens titer ([1]; 0 eq base): 7.0 Log
Log S. marcescens reduction ([1]; 2 eq base): 0.31 Log
Log S. marcescens titer ([1]; 2 eq base): 7.4 Log
mean fluorescence ([2]; 16C day 0.8): 2.16
mean fluorescence ([2]; 16C day 2): 1.78
mean fluorescence ([2]; 16C day 7): 1.58
mean fluorescence ([2]; 16C day 14): 1.48
mean fluorescence ([2]; 16C day 22): 1.58
mean fluorescence ([2]; 16C day 28): 2.02
mean fluorescence ([2]; 16C day 35): 1.62
mean fluorescence ([2]; 16C day 43): 1.8
